Results as given in ChEMBL document CHEMBL2163341, “Discovery of MK-7725, A Potent, Selective Bombesin Receptor Subtype-3 Agonist for the Treatment of Obesity” (ACS Med Chem Lett, 2012).
The source made the active and inactive calls. The rule behind the calls is not given here.

How the values were obtained:
[1] = Oral bioavailability in Sprague-Dawley rat at 1 mg/kg; format: ADME, organism-based; conditions: in vivo
[2] = Half life in Sprague-Dawley rat at 0.5 mg/kg, iv; format: ADME, organism-based; set-up: dose 0.5 mg/kg, route intravenous; conditions: in vivo
[3] = Plasma clearance in Sprague-Dawley rat at 0.5 mg/kg, iv; format: ADME, organism-based; set-up: dose 0.5 mg/kg, route intravenous
Mus musculus [4] = assay: Increase of core body temperature in DIO mouse assessed as AUC (1 to 6 hrs) of body temperature changes at 3 mg/kg by fasted temperature PD assay; format: functional
[5] = target: T1, Bombesin receptor subtype-3 (Mus musculus) (UniProt O54798); assay: Agonist activity at mouse BRS-3 expressed in HEK293AEQ cells assessed as bioluminescence for 10 mins by aequorin bioluminescence assay relative to dY-peptide; format: functional, cell-based
T1 sequence (whole entry): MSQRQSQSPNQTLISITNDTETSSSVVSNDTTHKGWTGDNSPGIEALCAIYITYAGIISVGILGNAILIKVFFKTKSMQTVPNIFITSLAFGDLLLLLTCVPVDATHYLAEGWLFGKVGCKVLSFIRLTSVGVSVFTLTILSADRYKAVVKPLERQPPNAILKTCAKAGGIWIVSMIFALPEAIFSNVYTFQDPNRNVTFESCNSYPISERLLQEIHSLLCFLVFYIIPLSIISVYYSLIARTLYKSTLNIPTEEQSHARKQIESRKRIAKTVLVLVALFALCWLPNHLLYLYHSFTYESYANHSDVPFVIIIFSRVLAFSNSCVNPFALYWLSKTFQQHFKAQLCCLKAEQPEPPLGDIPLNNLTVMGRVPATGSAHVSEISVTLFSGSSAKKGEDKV

[6] = target: T2, Bombesin receptor subtype-3 (Mus musculus, UniProt O54798); assay: Agonist activity at mouse BRS-3 expressed in HEK293AEQ cells assessed as bioluminescence for 10 mins by aequorin bioluminescence assay; format: functional, cell-based
T2 sequence (O54798 whole entry): T1 sequence (whole entry)

[7] = target: T3, Bombesin receptor subtype-3 (Homo sapiens, UniProt P32247); assay: Displacement of [125I]-dY-peptide from human BRS-3 expressed in NFAT-CHO cells after 2 hrs by liquid scintillation counting; format: cell-based
T3 sequence (P32247 whole entry): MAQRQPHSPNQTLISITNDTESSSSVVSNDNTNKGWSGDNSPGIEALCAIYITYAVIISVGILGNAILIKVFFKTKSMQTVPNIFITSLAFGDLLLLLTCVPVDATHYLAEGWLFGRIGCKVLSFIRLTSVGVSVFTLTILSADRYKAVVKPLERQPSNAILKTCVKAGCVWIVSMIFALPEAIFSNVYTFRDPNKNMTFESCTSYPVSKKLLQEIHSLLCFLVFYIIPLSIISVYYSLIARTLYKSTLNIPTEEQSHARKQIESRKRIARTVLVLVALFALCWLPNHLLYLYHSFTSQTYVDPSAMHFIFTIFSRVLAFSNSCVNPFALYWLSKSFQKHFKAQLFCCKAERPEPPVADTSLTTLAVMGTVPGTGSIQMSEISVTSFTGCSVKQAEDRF

[8] = target: T4, Nuclear receptor subfamily 1 group I member 2 (Homo sapiens, UniProt O75469); assay: Activation of PXR at 10 uM
T4 sequence (O75469 whole entry): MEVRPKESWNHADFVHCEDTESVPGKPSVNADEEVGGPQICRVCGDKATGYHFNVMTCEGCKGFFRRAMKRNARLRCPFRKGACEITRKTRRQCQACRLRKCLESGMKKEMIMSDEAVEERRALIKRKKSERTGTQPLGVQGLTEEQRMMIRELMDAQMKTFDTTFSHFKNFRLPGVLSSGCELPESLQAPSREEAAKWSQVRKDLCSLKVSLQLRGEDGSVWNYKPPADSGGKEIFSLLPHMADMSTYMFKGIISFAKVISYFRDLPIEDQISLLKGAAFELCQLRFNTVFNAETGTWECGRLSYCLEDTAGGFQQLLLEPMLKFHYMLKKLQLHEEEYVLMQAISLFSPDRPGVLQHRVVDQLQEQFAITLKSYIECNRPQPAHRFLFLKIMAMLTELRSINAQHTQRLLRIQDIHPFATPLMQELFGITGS

[9] = target: T4, Nuclear receptor subfamily 1 group I member 2; assay: Activation of PXR
Rattus norvegicus [10] = assay: Dose normalized AUC in Sprague-Dawley rat at 1 mg/kg, po; format: ADME, organism-based; set-up: dose 1 mg/kg, route oral; conditions: in vivo
[11] = target: T5, Bombesin receptor subtype-3 (Homo sapiens) (UniProt P32247); assay: Agonist activity at human BRS-3 expressed in HEK293AEQ cells assessed as bioluminescence for 10 mins by aequorin bioluminescence assay relative to dY-peptide; format: functional, cell-based
T5 sequence (whole entry): T3 sequence (P32247 whole entry)

[12] = target: T3, Bombesin receptor subtype-3; assay: Agonist activity at human BRS-3 expressed in HEK293AEQ cells assessed as bioluminescence for 10 mins by aequorin bioluminescence assay; format: functional, cell-based
Rattus norvegicus [13] = assay: Antiobesity activity in DIO Sprague-Dawley rat assessed as reduction of body weight at 3 mg/kg, po administered bid for 12 days; format: functional; set-up: scale not given: the % may be the effect or the level left
Canis familiaris [14] = assay: Antiobesity activity in obese Beagle dog assessed as reduction of body weight at 5 to 15 mg/kg, po administered for 7 days relative to control; format: functional, Canis lupus familiaris; set-up: scale not given: the % may be the effect or the level left; conditions: dose mg/kg 5-15
Rattus norvegicus [15] = assay: Antiobesity activity in DIO Sprague-Dawley rat assessed as increase in metabolic rate at 15 to 50 mg/kg, po administered bid for 12 days; format: functional, organism-based
Rattus norvegicus [16] = assay: Toxicity in DIO Sprague-Dawley rat assessed as tachyphylaxis at 15 to 50 mg/kg, po administered bid for 12 days; format: organism-based; set-up: dose 15-50 mg/kg, route oral; conditions: in vivo, 288 h
Mus musculus [17] = assay: Antiobesity activity in BRS-3 knock out DIO C57BL/6 mouse assessed as reduction of food intake at 100 mg/kg, po after 18 hrs; format: functional, organism-based; set-up: dose 100 mg/kg
Rattus norvegicus [18] = assay: Antiobesity activity in DIO Sprague-Dawley rat assessed as reduction of body weight at 15 mg/kg, po administered bid for 12 days; format: functional; set-up: scale not given: the % may be the effect or the level left
Rattus norvegicus [19] = assay: Antiobesity activity in DIO Sprague-Dawley rat assessed as reduction of body weight at 50 mg/kg, po administered bid for 12 days; format: functional; set-up: scale not given: the % may be the effect or the level left
Mus musculus [20] = assay: Antiobesity activity in po dosed wild type DIO C57 mouse assessed as reduction of body weight; format: functional, organism-based
Mus musculus [21] = assay: Antiobesity activity in po dosed wild type DIO C57 mouse assessed as reduction of food intake; format: functional, organism-based
Rhesus monkey = assay: Dose normalized AUC in rhesus monkey at 1 mg/kg, po; format: ADME, organism-based, Macaca mulatta; set-up: dose 1 mg/kg, route oral; conditions: in vivo
[22] = Oral bioavailability in rhesus monkey at 1 mg/kg; format: ADME, organism-based, Macaca mulatta; conditions: in vivo
[23] = Plasma clearance in rhesus monkey at 0.5 mg/kg, iv; format: ADME, organism-based, Macaca mulatta; set-up: dose 0.5 mg/kg, route intravenous
[24] = Half life in rhesus monkey at 0.5 mg/kg, iv; format: ADME, organism-based, Macaca mulatta; set-up: dose 0.5 mg/kg, route intravenous; conditions: in vivo
[25] = Half life in dog at 0.5 mg/kg, iv; format: ADME, organism-based, Canis lupus familiaris; set-up: dose 0.5 mg/kg, route intravenous; conditions: in vivo
Canis familiaris [26] = assay: Dose normalized AUC in dog at 1 mg/kg, po; format: ADME, organism-based, Canis lupus familiaris; set-up: dose 1 mg/kg, route oral; conditions: in vivo
[27] = Oral bioavailability in dog at 1 mg/kg; format: ADME, organism-based, Canis lupus familiaris; conditions: in vivo
[28] = Plasma clearance in dog at 0.5 mg/kg, iv; format: ADME, organism-based, Canis lupus familiaris; set-up: dose 0.5 mg/kg, route intravenous

Row | SMILES | bioavailability [1] | half-life [2] | clearance [3] | Activity (Mus musculus [4]) | Activity [5] | EC50 [6] | IC50 [7] | Activity [8] | EC50 [9] | AUC/dose (Rattus norvegicus [10]) | Activity [11] | EC50 [12] | also measured
1 | CC(C)c1ccc(S(=O)(=O)N2Cc3ccc(C(F)(F)F)nc3Nc3cccc(-c4noc(C(C)(C)O)n4)c32)cc1 | 8% | 1.6 h | 49 mL/min/kg | 4.93 degreeC.hr | 114% | 147 nM | 1.7 nM | 80% | 2400 nM |  |  |  | 
2 | CC(C)(C)c1ccc(S(=O)(=O)N2Cc3ccc(C(F)(F)F)nc3Nc3cccc(-c4noc(CO)n4)c32)cc1 | 29% | 1.7 h | 22 mL/min/kg | 2.6 degreeC.hr | 114% | 93 nM | 0.7 nM | 78% | 3500 nM | 0.39 µM·kg·h/mg | 102% | 56 nM | 
3 | Cc1ccc2c(c1C)N(S(=O)(=O)c1ccc(C(C)(C)C)cc1)Cc1ccc(C(F)(F)F)nc1N2 |  |  |  |  |  |  |  | 42% |  |  |  |  | 
4 | C[C@H](O)c1nc(-c2cccc3c2N(S(=O)(=O)c2ccc(C(C)(C)C)cc2)Cc2ccc(C(F)(F)F)nc2N3)no1 | 14% | 2.1 h | 86 mL/min/kg | 3.7 degreeC.hr | 109% | 89 nM | 1.2 nM | 9% | > 10000 nM | 0.34 µM·kg·h/mg | 102% | 52 nM | 
5 | CC(C)(O)c1nc(-c2cccc3c2N(S(=O)(=O)c2ccc(C(F)(F)F)cc2)Cc2ccc(C(F)(F)F)nc2N3)no1 | 100% | 2.5 h | 33 mL/min/kg | 5.22 degreeC.hr | 97% | 95 nM | 8.3 nM | 6% | > 30000 nM | 1.05 µM·kg·h/mg |  |  | 
6 | Cn1cc(-c2cccc3c2N(S(=O)(=O)c2ccc(C(C)(C)C)cc2)Cc2ccc(C(F)(F)F)nc2N3)cn1 |  |  |  | 0.2 degreeC.hr | 110% | 102 nM | 0.76 nM | 50% | 1100 nM |  | 95% | 63 nM | 
7 | CCNC(C)Cc1cccc(C(F)(F)F)c1 (stereo unspecified) [FENFLURAMINE] |  |  |  |  |  |  |  |  |  |  |  |  | Activity (Rattus norvegicus [13]): 6.2%
8 | CC(C)(C)c1ccc(S(=O)(=O)N2Cc3ccc(C(F)(F)F)nc3Nc3cccc(-c4ncon4)c32)cc1 |  |  |  | 2.1 degreeC.hr | 116% | 57 nM | 1.1 nM | 53% | 11800 nM |  | 102% | 40 nM | 
9 | CC(C)(O)c1nc(-c2cccc3c2N(S(=O)(=O)c2ccc(OC(F)(F)F)cc2)Cc2ccc(C(F)(F)F)nc2N3)no1 |  |  |  | 5.6 degreeC.hr | 106% |  |  | 17% | > 30000 nM | 1.6 µM·kg·h/mg |  |  | Activity (Canis familiaris [14]): 4%; Activity (Rattus norvegicus [15]): Active; Activity (Rattus norvegicus [16]): Non-toxic; Activity (Mus musculus [17]): inactive; Activity (Rattus norvegicus [18]): 4%; Activity (Rattus norvegicus [19]): 3.2%; Activity (Mus musculus [20]): Dose-dependent effect; Activity (Mus musculus [21]): Dose-dependent effect; AUC/dose (Rhesus monkey): 12 µM·kg·h/mg; bioavailability [22]: 58%; clearance [23]: 1.3 mL/min/kg; half-life [24]: 33 h; half-life [25]: 18 h; AUC/dose (Canis familiaris [26]): 10 µM·kg·h/mg; bioavailability [27]: 100%; clearance [28]: 2.9 mL/min/kg
10 | CC(C)(C)c1ccc(S(=O)(=O)N2Cc3ccc(C(F)(F)F)nc3Nc3cccc(C4CCNCC4)c32)cc1 |  |  |  | -0.74 degreeC.hr | 129% | 115 nM | 1.4 nM | 37% | 6600 nM |  | 101% | 114 nM | 
11 | CC(C)(C)c1ccc(S(=O)(=O)N2Cc3ccc(C(F)(F)F)nc3Nc3cccc(-c4noc(C(C)(C)O)n4)c32)cc1 | 14% | 1.9 h | 44 mL/min/kg | 2.6 degreeC.hr | 117% | 83 nM | 0.9 nM | 13% | > 10000 nM | 0.65 µM·kg·h/mg | 106% | 52 nM | 
12 | CC(C)(O)c1nc(-c2cccc3c2N(S(=O)(=O)c2ccc(OC(F)F)cc2)Cc2ccc(C(F)(F)F)nc2N3)no1 |  |  |  | 3.31 degreeC.hr | 94% | 99 nM | 18 nM | 22% | 10000 nM |  |  |  | 
13 | CC(C)(C)c1ccc(S(=O)(=O)N2Cc3ccc(C(F)(F)F)nc3Nc3cccc(-c4noc(=O)[nH]4)c32)cc1 |  |  |  | -0.52 degreeC.hr | 105% | 76 nM | 29 nM | 42% | 1900 nM |  | 104% | 77 nM | 
14 | CC(C)(C)c1ccc(S(=O)(=O)N2Cc3ccc(C(F)(F)F)nc3Nc3cccc(-c4cccnc4)c32)cc1 |  |  |  | -0.99 degreeC.hr | 105% | 58 nM | 1.72 nM | 77% | 1800 nM |  | 99% | 42 nM | 
15 | C[C@@H](O)c1nc(-c2cccc3c2N(S(=O)(=O)c2ccc(C(C)(C)C)cc2)Cc2ccc(C(F)(F)F)nc2N3)no1 | 11% | 1.8 h | 33 mL/min/kg | 0.4 degreeC.hr | 112% | 134 nM | 1.9 nM | 18% | > 25000 nM | 0.9 µM·kg·h/mg | 107% | 69 nM | 
